± gives the expanded uncertainty stated by the source.
Conditions: Liquid, Pycnometric method

CCCCCCCCCCCCCCCCCCCCC [heneicosane]
Conditions	specific volume [m3/kg]
313.65 K	0.001285 ± 1.9e-05
315.75 K	0.001283 ± 1.9e-05
317.65 K	0.001286 ± 1.9e-05
319.65 K	0.001288 ± 1.9e-05
321.55 K	0.001289 ± 1.9e-05
323.55 K	0.001291 ± 1.9e-05
325.45 K	0.001294 ± 1.9e-05
327.45 K	0.001296 ± 1.9e-05
329.35 K	0.001299 ± 1.9e-05
331.25 K	0.001302 ± 1.9e-05
333.25 K	0.001302 ± 1.9e-05
335.15 K	0.001304 ± 2e-05
337.15 K	0.001307 ± 2e-05
339.05 K	0.001309 ± 2e-05
341.05 K	0.00131 ± 2e-05
342.95 K	0.001313 ± 2e-05
344.85 K	0.001315 ± 2e-05
346.85 K	0.001317 ± 2e-05
348.75 K	0.001321 ± 2e-05
350.75 K	0.001324 ± 2e-05
352.65 K	0.001325 ± 2e-05
354.65 K	0.001329 ± 2e-05
354.85 K	0.001329 ± 2e-05
356.55 K	0.001331 ± 2e-05
358.45 K	0.001333 ± 2e-05
360.45 K	0.001335 ± 2e-05
362.35 K	0.001337 ± 2e-05
364.35 K	0.00134 ± 2e-05
366.25 K	0.001342 ± 2e-05
368.15 K	0.001344 ± 2e-05
370.15 K	0.001349 ± 2e-05
372.05 K	0.00135 ± 2e-05
374.05 K	0.001354 ± 2e-05
375.45 K	0.001353 ± 2e-05
375.95 K	0.001354 ± 2e-05
377.95 K	0.001358 ± 2e-05
379.85 K	0.001361 ± 2.1e-05
381.75 K	0.001362 ± 2.1e-05
383.75 K	0.001366 ± 2.1e-05
385.65 K	0.001367 ± 2.1e-05
387.65 K	0.001369 ± 2.1e-05
389.55 K	0.001373 ± 2.1e-05
391.55 K	0.001373 ± 2.1e-05
393.45 K	0.001377 ± 2.1e-05
395.35 K	0.00138 ± 2.1e-05
396.05 K	0.00138 ± 2.1e-05
397.35 K	0.001381 ± 2.1e-05
399.25 K	0.001386 ± 2.1e-05
401.25 K	0.001384 ± 2.1e-05
403.15 K	0.001387 ± 2.1e-05
405.15 K	0.001392 ± 2.1e-05
407.05 K	0.001394 ± 2.1e-05
408.95 K	0.001396 ± 2.1e-05
410.95 K	0.001401 ± 2.1e-05
412.85 K	0.001401 ± 2.1e-05
414.85 K	0.001404 ± 2.1e-05
416.65 K	0.001408 ± 2.1e-05
416.75 K	0.001409 ± 2.1e-05
418.65 K	0.00141 ± 2.1e-05
420.65 K	0.001411 ± 2.1e-05
422.55 K	0.001417 ± 2.1e-05
424.55 K	0.001419 ± 2.1e-05
426.45 K	0.001421 ± 2.1e-05
428.45 K	0.001423 ± 2.1e-05
430.35 K	0.001426 ± 2.2e-05
432.25 K	0.001432 ± 2.2e-05
434.25 K	0.001432 ± 2.2e-05
436.15 K	0.001436 ± 2.2e-05
437.25 K	0.001437 ± 2.2e-05
438.15 K	0.001437 ± 2.2e-05
440.05 K	0.001443 ± 2.2e-05
442.05 K	0.001444 ± 2.2e-05
443.95 K	0.001448 ± 2.2e-05
445.85 K	0.00145 ± 2.2e-05
447.85 K	0.001454 ± 2.2e-05
449.75 K	0.001455 ± 2.2e-05
451.75 K	0.001458 ± 2.2e-05
453.65 K	0.00146 ± 2.2e-05
455.65 K	0.001464 ± 2.2e-05
457.55 K	0.001467 ± 2.2e-05
457.85 K	0.001468 ± 2.2e-05
459.45 K	0.00147 ± 2.2e-05
461.45 K	0.001471 ± 2.2e-05
463.35 K	0.001476 ± 2.2e-05
465.35 K	0.001479 ± 2.2e-05
467.25 K	0.001484 ± 2.2e-05
469.15 K	0.001485 ± 2.2e-05
471.15 K	0.001489 ± 2.2e-05
473.05 K	0.001491 ± 2.2e-05
475.05 K	0.001492 ± 2.2e-05
476.95 K	0.001497 ± 2.3e-05
478.45 K	0.001498 ± 2.3e-05
478.95 K	0.001502 ± 2.3e-05
480.85 K	0.001503 ± 2.3e-05
482.75 K	0.001505 ± 2.3e-05
484.75 K	0.001511 ± 2.3e-05
486.65 K	0.001513 ± 2.3e-05
488.65 K	0.001516 ± 2.3e-05
488.75 K	0.001517 ± 2.3e-05
490.55 K	0.001519 ± 2.3e-05
492.55 K	0.001521 ± 2.3e-05
494.45 K	0.001523 ± 2.3e-05
496.35 K	0.00153 ± 2.3e-05
498.35 K	0.001531 ± 2.3e-05
500.25 K	0.001537 ± 2.3e-05
502.25 K	0.001536 ± 2.3e-05
504.15 K	0.001543 ± 2.3e-05
506.15 K	0.001544 ± 2.3e-05
508.05 K	0.00155 ± 2.3e-05
509.95 K	0.001551 ± 2.3e-05
511.95 K	0.001554 ± 2.3e-05
513.85 K	0.001559 ± 2.3e-05
515.85 K	0.001564 ± 2.4e-05
517.75 K	0.001567 ± 2.4e-05
519.65 K	0.001569 ± 2.4e-05
521.65 K	0.001575 ± 2.4e-05
523.55 K	0.001575 ± 2.4e-05
525.55 K	0.001582 ± 2.4e-05
527.45 K	0.001586 ± 2.4e-05
529.45 K	0.001588 ± 2.4e-05
531.35 K	0.001588 ± 2.4e-05
533.25 K	0.001596 ± 2.4e-05
535.25 K	0.0016 ± 2.4e-05
537.15 K	0.001603 ± 2.4e-05
539.15 K	0.001606 ± 2.4e-05
541.05 K	0.001612 ± 2.4e-05
543.05 K	0.001614 ± 2.4e-05
544.95 K	0.001617 ± 2.4e-05
546.85 K	0.001621 ± 2.4e-05
548.85 K	0.001626 ± 2.4e-05
550.75 K	0.001626 ± 2.4e-05
552.75 K	0.001634 ± 2.5e-05
554.65 K	0.001635 ± 2.5e-05
556.65 K	0.001639 ± 2.5e-05
558.55 K	0.001643 ± 2.5e-05
560.45 K	0.001648 ± 2.5e-05
562.45 K	0.00165 ± 2.5e-05
564.35 K	0.001657 ± 2.5e-05
566.35 K	0.001659 ± 2.5e-05

CCCCCCCCCCCCCCCC [hexadecane]
Conditions	specific volume [m3/kg]
298 K	0.001313 ± 2e-05
323 K	0.001344 ± 2e-05
348 K	0.001376 ± 2.1e-05
373 K	0.001411 ± 2.1e-05
398 K	0.001447 ± 2.2e-05
423 K	0.001486 ± 2.2e-05
448 K	0.001529 ± 2.3e-05
473 K	0.001575 ± 2.4e-05
498 K	0.001626 ± 2.4e-05
523 K	0.001682 ± 2.5e-05
548 K	0.001744 ± 2.6e-05
573 K	0.001811 ± 2.7e-05

From the NIST ThermoML archive (doi:10.1016/j.tca.2006.04.001)
